According to US9714213B2, “4-aminomethylbenzoic acid derivative” (TOA EIYO LTD., priority 2013, dated 2017):
Read-outs that look alike come from different tables or passages of the source.

Tests used:
rat ventral aorta = experiment: Blood vessel relaxation activity, phenylephrine-contracted rat ventral aorta ring specimen; conditions: relaxation of 1 μmol/L phenylephrine contraction; EC50 without ODQ / EC50 with 10 μmol/L ODQ
Method: A representative compound of the present invention was assayed for blood vessel relaxation activity according to the Test Example described below. In the assay, a rat (male, SD) was phlebotomized from the upper part of the heart under pentobarbital (30 mg/kg) anesthesia, and the ventral aorta was extracted. The connective tissue adhering around the blood vessel in the ventral aorta was removed in an ice-cooled Krebs-Henseleit solution (KH solution) (118 mmol/L sodium chloride, 4.7 mmol/L potassium chloride, 1.2 mmol/L magnesium sulfate, 1.2 mmol/L potassium dihydrogenphosphate, 25 mmol/L sodium hydrogen carbonate, 2.5 mmol/L calcium chloride and 10 mmol/L glucose, pH 7.4). Then, a ring specimen of 2 mm length was prepared, and fixed in 5 mL organ bath filled with the KH solution. The KH solution was maintained at 37° C., and a mixed gas of 95% O2 and 5% CO2 was ventilated. The specimen was stabilized with 1 g of the resting tension for 1 hour. In the meantime, the KH solution was exchanged twice. The tension of the specimen was recorded with a multichannel recorder through a pickup and an amplifier. After stabilization of the specimen, contraction was induced with 1 μmol/L phenylephrine (Phe), and cumulative administration of each compound (0.001, 0.01, 0.03, 0.1, 0.3, 1, 3, 10, 30, 100, 1000, 10000 nmol/L) was carried out. In the case of evaluation at the time of containing ODQ, 10 μmol/L ODQ was added 10 minutes before administration of Phe, and similar evaluation was performed.
EC50 value was calculated by Four-parameter Logistic Model with Assay Explorer (Accelrys, Inc.). Meanwhile, the solution of the test compound was prepared by dissolving the compound in DMSO to prepare solutions having the concentration of each test compound 1000 times higher than the final concentration.

human sGC = biological target: T1, human sGC (Homo sapiens, UniProt Q02153); experiment: Maximum effect of sGC activation (intracellular Ca2+, Fura2-AM) in CHO-K1 cells stably expressing human sGC and mouse CNGA2; type: cell-based; conditions: increase rate of sGC activity vs DMSO control, test compound 10 μmol/L
T1 construct: expressed in transfected cells; host or cells: CHO-K1 (Chinese hamster ovary) cells
T1 sequence (Q02153 1-619): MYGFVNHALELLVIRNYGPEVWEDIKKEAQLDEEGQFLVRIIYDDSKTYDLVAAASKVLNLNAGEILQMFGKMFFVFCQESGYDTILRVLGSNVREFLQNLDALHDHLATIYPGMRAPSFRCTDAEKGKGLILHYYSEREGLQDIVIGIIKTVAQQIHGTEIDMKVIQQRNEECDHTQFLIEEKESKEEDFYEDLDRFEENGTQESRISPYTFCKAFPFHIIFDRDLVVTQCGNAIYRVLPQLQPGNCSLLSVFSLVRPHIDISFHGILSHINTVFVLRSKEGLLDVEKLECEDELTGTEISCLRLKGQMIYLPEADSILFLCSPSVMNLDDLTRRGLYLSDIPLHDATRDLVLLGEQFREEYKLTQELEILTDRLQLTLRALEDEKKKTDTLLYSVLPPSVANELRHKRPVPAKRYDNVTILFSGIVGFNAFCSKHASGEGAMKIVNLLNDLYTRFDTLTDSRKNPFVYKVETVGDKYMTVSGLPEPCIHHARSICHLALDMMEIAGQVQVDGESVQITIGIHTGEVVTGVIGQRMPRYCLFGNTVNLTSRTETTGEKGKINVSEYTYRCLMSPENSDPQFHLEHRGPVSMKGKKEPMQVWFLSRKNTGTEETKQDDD
T1 sequence (Q02108 1-690 partner): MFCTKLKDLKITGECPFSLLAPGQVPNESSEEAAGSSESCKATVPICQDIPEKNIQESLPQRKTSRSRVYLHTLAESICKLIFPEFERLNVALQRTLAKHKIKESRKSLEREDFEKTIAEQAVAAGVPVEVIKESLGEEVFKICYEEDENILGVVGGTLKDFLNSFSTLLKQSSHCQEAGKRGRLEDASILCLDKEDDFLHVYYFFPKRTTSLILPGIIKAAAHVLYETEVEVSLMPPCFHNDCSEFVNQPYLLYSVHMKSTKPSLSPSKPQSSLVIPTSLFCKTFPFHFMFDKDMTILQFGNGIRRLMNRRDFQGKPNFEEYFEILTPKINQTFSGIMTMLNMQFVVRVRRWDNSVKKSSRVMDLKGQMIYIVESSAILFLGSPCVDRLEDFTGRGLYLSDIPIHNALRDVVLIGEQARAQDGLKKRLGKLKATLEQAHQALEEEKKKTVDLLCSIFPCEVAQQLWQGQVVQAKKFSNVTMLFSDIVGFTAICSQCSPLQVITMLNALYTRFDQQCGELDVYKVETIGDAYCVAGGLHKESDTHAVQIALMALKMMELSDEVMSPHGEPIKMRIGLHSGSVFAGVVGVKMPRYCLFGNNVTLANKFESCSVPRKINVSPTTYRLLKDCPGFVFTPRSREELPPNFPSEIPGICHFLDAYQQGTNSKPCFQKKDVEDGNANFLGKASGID
Method: For the assay, chinese hamster ovary cells (CHO-K1 cells) stably expressing both α and β subunits of human sGC and mouse cyclic nucleotide-gated channel (CNGA2) were used.
The CHO-K1 cells stably expressing human sGC and mouse CNGA2 was cultured at 37° C. on F-12 medium containing 10% (v/v) fetal bovine serum (FBS), penicillin (100 U/mL), streptomycin (100 μg/mL), G418 (250 μg/mL) and Zeocin (250 μg/mL). The cells were suspended in a culture medium, seeded on a 96 well plate, and then cultured at 37° C. for 24 hours. The cells were washed with Assay buffer 1 (140 mmol/L sodium chloride, 5 mmol/L potassium chloride, 0.5 mmol/L magnesium chloride, 0.01 mmol/L calcium chloride, 10 mmol/L glucose, 0.4 mmol/L magnesium sulfate, 10 mmol/L 4-(2-hydroxyethyl)piperazin-1-ylethanesulfonic acid and 125 μmol/L sulfinpyrazone, pH 7.4), and then added a solution containing Fura2-AM, a fluorescent Ca^2+ indicator, in Assay buffer 1 at […] concentration thereto as an indicator solution, and cultured at 37° C. for 60 minutes. The culture medium was removed, and the cells were washed with Assay buffer 1, and then added a solution containing the test compound thereto, and cultured at room temperature for 10 minutes. A plate was placed onto a fluorometer (FlexStation II, Molecular Devices), and the intracellular calcium concentration was determined as the ratio of fluorescent intensity, obtained from measurement using 340 nm and 380 nm as excitation wavelength and 510 nm as detection wavelength.
The solution of the test compound was prepared by dissolving each test compound in DMSO at 10 mmol/L, and then diluting the solution for the test concentration at 10 μmol/L with Assay buffer (140 mmol/L sodium chloride, 5 mmol/L potassium chloride, 0.5 mmol/L magnesium chloride, 1 mmol/L calcium chloride, 10 mmol/L glucose, 0.4 mmol/L magnesium sulfate, 10 mmol/L 4-(2-hydroxyethyl)piperazin-1-ylethanesulfonic acid, […] sulfinpyrazone, 100 μmol/L isobutyl methyl xanthine, and 10 μmol/L 1H-[1,2,4]-oxadiazol[4,3-a]quinoxaline-1-one (hereinafter, ODQ), pH 7.4). The evaluation in the absence of ODQ was performed similarly, except that ODQ was not added to Assay buffer 2. As a control solution, a DMSO solution was used instead of the test compound solution.
The activity of the test compound defined as the increase rate of the sGC activity (%) at the time of adding the solution of the test compound with respect to the sGC activity at the time of adding the control solution, was calculated by dividing the fluorescent intensity ratio at the time of adding the test compound by the fluorescent intensity ratio of the control solution, and subtracting the sGC activity at the time of adding the control solution (100%).
If sGC is activated in this assay, intracellular cGMP concentration increases and accordingly intracellular Ca^2+ concentration is increased by opening of CNGA2. Accordingly, sGC activation can be measured as the change of Ca^2+ concentration in the cell. […] Accordingly, it is possible to evaluate maximum sGC activation effect including heme-dependent activation in the absence of ODQ, and also possible to evaluate heme independent sGC activation effect in the presence of ODQ.

[1] = 10 μmol/L ODQ present, read-out: Emax (%) ODQ+ (Heme-independent)
[2] = absence of ODQ, read-out: Emax (%) ODQ− (Heme-dependent)

Row | EC50 Ratio (ODQ−/ODQ+) (rat ventral aorta) | Emax at 10 µM (human sGC; [1]) | Emax at 10 µM (human sGC; [2]) | Compound
1 | 6.20 | 122% | 114% | O=C(O)CCCCN(Cc1ccc(C(=O)O)cc1)CC(OCc1ccc(CCc2ccccc2)cc1)c1cccs1 (stereo not drawn) [Example 19]
2 | 7.72 | 110% | 92.6% | O=C(O)CCCCN(Cc1ccc(C(=O)O)cc1)CC(OCc1ccc(CCc2ccccc2)cc1)c1ccsc1 (stereo not drawn) [Example 26, 4-{[N-(4-Carboxybutyl)-N-[2-[4-(2-phenylethyl)benzyloxy]-2-(3-thienyl)ethyl]amino]methyl}benzoic acid]
3 | 2.66 | 118% | 187% | O=C(O)CCCCN(Cc1ccc(C(=O)O)cc1)CC(OCc1ccc(CCc2ccccc2)cc1)c1ccc(Cl)s1 (stereo not drawn) [Example 27, 4-{[N-(4-Carboxybutyl)-N-[2-[4-(2-phenylethyl)benzyloxy]-2-(5-chloro-2-thienyl)ethyl]amino]methyl}benzoic acid]
4 | 2.99 | 114% | 98% | Cc1ccc(C(CN(CCCCC(=O)O)Cc2ccc(C(=O)O)c(F)c2)OCc2ccc(CCc3ccccc3)cc2)s1 (stereo not drawn) [Example 28, 4-{[N-(4-Carboxybutyl)-N-[2-[4-(2-phenylethyl)benzyloxy]-2-(5-methyl-2-thienyl)ethyl]amino]methyl}-2-fluorobenzoic acid]

Further lines, the compound ahead of its results:

Row | Compound | EC50 Ratio (ODQ−/ODQ+) (rat ventral aorta) | Emax at 10 µM (human sGC; [1]) | Emax at 10 µM (human sGC; [2])
5 | CC(C)(CCCN(Cc1ccc(C(=O)O)cc1)CC(OCc1ccc(CCc2ccccc2)cc1)c1ccccc1)C(=O)O (stereo not drawn) [Example 16, 4-{[N-(4-Carboxy-4-methylpentyl)-N-[2-[4-(2-phenylethyl)benzyloxy]-2-phenylethyl]amino]methyl}benzoic acid] | 8.31 | 132% | 92.4%
6 | Cc1cccc(C(CN(CCCCC(=O)O)Cc2ccc(C(=O)O)cc2)OCc2ccc(CCc3ccccc3)cc2)c1 (stereo not drawn) [Example 23, 4-{[N-(4-Carboxybutyl)-N-[2-(3-methylphenyl)-2-[4-(2-phenylethyl)benzyloxy]ethyl]amino]methyl}benzoic acid] | 6.88 | 113% | 132%
7 | O=C(O)CCCCN(Cc1ccc(C(=O)O)cc1)CC(OCc1ccc(CCc2ccccc2)s1)c1ccccc1 (stereo not drawn) [Example 25, 4-{[N-(4-Carboxybutyl)-N-[2-[5-(2-phenylethyl)thiophen-2-ylmethoxy]-2-phenylethyl]amino]methyl}benzoic acid] | 2.61 | 114% | 130%
8 | O=C(O)CCCCN(Cc1ccc(C(=O)O)cc1)C[C@H](OCc1ccc(CCc2ccccc2)cc1)c1cccc(Cl)c1 [Example 29, (−)-4-{[N-(4-Carboxybutyl)-N-[(2R)-2-(3-chlorophenyl)-2-[4-(2-phenylethyl)benzyloxy]ethyl]amino]methyl}benzoic acid] | 9.66 | 110% | 98.2%
9 | O=C(O)CCCCN(Cc1ccc(C(=O)O)cc1)C[C@H](OCc1ccc(CCc2ccccc2)cc1)c1ccccc1 [Example 32, (−)-4-{[N-(4-Carboxybutyl)-N-[(2R)-2-[4-(2-phenylethyl)benzyloxy]-2-phenylethyl]amino]methyl}benzoic acid] | 7.31 | 87.7% | 128%
10 | O=C(O)CCCCN(Cc1ccc(C(=O)O)cc1)C[C@H](OCc1ccc(Oc2ccc(Cl)cc2)cc1)c1ccccc1 [Example 42, (−)-4-{[N-(4-Carboxybutyl)-N-[(2R)-2-[4-(4-chlorophenyloxy)benzyloxy]-2-phenylethyl]amino]methyl}benzoic acid] | 8.40 | 127% | 143%
11 | O=C(O)CCCCN(Cc1ccc(C(=O)O)cc1)C[C@H](OCc1ccc(CCc2ccccc2)cc1F)c1ccccc1 [Example 45, (−)-4-{[N-(4-Carboxybutyl)-N-[(2R)-2-[2-fluoro-4-(2-phenylethyl)benzyloxy]-2-phenylethyl]amino]methyl}benzoic acid] | 4.26 | 123% | 109%
